Assay results: patent US10351559B2, “Maleate salts of a B-RAF kinase inhibitor, crystalline forms, methods of preparation, and uses therefore” (BeiGene, Ltd., priority 2015, dated 2019)
Counter-ions that a name gives are not always drawn.

Experiments:
BTK = target: T1, BTK (Homo sapiens, UniProt Q06187); test: HTRF KinEASE-TK kinase assay; assay type: biochemical
T1 construct: purchased Carna Biosciences
Protocol: (§1) Crystalline Form A* of Compound 1 Sesqui-Maleate was tested against recombinant EGFR/EPHA2/BTK (from Carna Biosciences), ITK/TEC/SRC/PDGFR-beta/TXK/FLT3/VEGFR2/RET (from Life Technologies), and HER2 (aa676-1255, recombinant protein purified from insect expression system) in HTRF KinEASE-TK assay from Cisbio Bioassays according to the manufacturer's instructions. The assay was carried out in a reaction mixture containing kinases, ATP at KM concentration, biotinylated peptide substrate (61TK0BLC, Cisbio Bioassays) and Crystalline Form A* of Compound 1 Sesqui-Maleate. The kinase was incubated with Crystalline Form A* of Compound 1 Sesqui-Maleate at RT for 1 hr or 2 hr (for EGFR) and the reaction was initiated by the addition of ATP and substrate. After reaction, stop/detection solution was added according to the manufacture's instruction. The stop/detection solution contained Eu+ cryptate conjugated antiphosphotyrosine antibody (61T66kLB, CisBio Bioassays) and Streptavidin-XL665 (610SAXLB, CisBio Bioassays) in buffer containing 25 mM Tris pH7.4, 400 mM KF, 50 mM EDTA, 0.01% BSA, 0.01% Triton X-100. The TR-FRET signals (ratio of fluorescence emission at 665 nm over emission at 620 nm with excitation at 337 nm wavelength) were recorded on a PHERAstar FS plate reader (BMG Labtech) after 1 hr incubation. Phosphorylation of biotinylated peptide substrate led to the binding of both Eu+ cryptate conjugated antiphosphotyrosine antibody and streptaviding-XL665 to the biotinylated peptide. The close proximity of the donor (Eu+ cryptate) and acceptor (XL665) fluorophore led to a high degree of fluorescence resonance energy transfer from the donor fluorophore (at 620 nm) to the acceptor fluorophore (at 665 nm). The IC50 for Crystalline Form A* of Compound 1 Sesqui-Maleate was derived from fitting the dose-response % inhibition data to the four-parameter logistic model by Graphpad Prism software.

EPHA2 = target: T2, EPHA2 (Homo sapiens, UniProt P29317); test: HTRF KinEASE-TK kinase assay; assay type: biochemical
T2 construct: purchased Carna Biosciences
Protocol: as §1

FLT3 = target: T3, FLT3 (Homo sapiens, UniProt P36888); test: HTRF KinEASE-TK kinase assay; assay type: biochemical
T3 construct: purchased Life Technologies
T3 sequence (P36888 27-993): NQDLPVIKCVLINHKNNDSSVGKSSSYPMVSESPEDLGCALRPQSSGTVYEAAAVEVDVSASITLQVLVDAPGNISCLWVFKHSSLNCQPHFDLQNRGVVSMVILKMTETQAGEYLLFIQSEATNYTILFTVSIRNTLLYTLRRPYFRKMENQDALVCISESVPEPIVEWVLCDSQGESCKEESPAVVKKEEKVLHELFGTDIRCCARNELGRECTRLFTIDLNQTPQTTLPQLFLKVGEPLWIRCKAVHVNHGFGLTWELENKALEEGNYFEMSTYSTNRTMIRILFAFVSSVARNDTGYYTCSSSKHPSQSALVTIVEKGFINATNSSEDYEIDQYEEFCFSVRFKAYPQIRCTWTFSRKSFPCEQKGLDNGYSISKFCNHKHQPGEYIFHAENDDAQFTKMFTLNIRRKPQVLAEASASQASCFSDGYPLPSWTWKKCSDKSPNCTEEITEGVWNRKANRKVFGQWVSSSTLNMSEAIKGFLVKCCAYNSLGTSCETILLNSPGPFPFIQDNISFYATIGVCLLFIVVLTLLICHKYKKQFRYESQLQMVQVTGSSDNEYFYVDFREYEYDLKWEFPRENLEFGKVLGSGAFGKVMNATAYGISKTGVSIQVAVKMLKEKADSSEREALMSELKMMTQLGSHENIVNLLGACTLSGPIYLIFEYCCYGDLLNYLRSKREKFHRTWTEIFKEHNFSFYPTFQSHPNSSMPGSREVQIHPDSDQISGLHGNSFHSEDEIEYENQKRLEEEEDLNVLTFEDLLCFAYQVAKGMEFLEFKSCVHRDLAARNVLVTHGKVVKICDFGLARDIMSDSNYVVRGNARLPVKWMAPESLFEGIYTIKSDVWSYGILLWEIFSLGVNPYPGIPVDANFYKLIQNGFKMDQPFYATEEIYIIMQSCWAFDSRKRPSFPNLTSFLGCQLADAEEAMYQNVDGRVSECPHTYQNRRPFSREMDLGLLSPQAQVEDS
Protocol: as §1

ITK = target: T4, ITK (Homo sapiens, UniProt Q08881); test: HTRF KinEASE-TK kinase assay; assay type: biochemical
T4 construct: purchased Life Technologies
T4 sequence (Q08881 whole entry): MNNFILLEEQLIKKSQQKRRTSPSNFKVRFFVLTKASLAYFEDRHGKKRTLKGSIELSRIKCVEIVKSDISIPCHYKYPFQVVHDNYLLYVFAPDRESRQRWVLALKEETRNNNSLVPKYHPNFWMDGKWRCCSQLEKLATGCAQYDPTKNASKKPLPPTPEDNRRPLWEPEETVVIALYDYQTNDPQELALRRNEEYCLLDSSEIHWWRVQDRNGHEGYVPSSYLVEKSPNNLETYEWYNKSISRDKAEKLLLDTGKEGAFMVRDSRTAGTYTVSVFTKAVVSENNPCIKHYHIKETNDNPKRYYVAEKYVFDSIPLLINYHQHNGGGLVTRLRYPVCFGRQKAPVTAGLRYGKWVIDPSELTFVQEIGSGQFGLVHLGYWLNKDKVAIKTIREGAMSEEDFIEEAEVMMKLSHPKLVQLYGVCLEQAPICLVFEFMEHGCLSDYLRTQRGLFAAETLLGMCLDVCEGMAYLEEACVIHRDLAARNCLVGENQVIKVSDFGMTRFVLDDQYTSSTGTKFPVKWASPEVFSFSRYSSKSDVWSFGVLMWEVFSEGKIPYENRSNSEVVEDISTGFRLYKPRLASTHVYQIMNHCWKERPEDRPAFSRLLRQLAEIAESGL
Protocol: as §1

PDGFR-beta = target: T5, PDGFR-beta (Homo sapiens, UniProt P09619); test: HTRF KinEASE-TK kinase assay; assay type: biochemical
T5 construct: purchased Life Technologies
T5 sequence (P09619 33-1106): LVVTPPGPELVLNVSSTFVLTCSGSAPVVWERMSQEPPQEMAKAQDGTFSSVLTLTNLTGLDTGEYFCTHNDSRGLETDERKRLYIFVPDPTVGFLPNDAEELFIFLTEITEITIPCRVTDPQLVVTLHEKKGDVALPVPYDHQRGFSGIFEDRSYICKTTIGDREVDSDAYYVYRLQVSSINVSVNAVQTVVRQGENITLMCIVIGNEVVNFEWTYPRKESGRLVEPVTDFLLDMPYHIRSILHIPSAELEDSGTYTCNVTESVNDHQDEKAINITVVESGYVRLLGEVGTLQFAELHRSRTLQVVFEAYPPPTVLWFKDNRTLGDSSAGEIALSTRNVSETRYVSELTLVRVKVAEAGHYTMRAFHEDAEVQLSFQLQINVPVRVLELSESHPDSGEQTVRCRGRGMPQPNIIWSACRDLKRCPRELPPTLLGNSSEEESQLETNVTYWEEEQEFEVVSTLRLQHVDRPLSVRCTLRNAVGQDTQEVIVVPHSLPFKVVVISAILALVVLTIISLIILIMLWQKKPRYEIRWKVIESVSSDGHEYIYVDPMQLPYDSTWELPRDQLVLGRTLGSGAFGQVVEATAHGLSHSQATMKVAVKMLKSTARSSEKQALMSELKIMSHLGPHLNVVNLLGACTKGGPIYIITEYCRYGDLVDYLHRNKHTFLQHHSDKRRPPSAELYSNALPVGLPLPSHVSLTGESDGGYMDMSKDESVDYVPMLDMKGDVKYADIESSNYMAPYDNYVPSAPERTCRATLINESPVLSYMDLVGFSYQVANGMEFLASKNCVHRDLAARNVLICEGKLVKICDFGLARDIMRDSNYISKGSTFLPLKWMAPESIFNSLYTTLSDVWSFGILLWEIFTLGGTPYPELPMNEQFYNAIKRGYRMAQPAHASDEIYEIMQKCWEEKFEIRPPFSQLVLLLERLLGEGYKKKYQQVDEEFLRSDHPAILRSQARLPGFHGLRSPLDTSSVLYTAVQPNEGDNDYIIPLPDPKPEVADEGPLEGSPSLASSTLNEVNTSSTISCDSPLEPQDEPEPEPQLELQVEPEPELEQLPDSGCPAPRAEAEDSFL
Protocol: as §1

RET = target: T6, RET (Homo sapiens, UniProt P07949); test: HTRF KinEASE-TK kinase assay; assay type: biochemical
T6 construct: purchased Life Technologies
T6 sequence (P07949 29-1114): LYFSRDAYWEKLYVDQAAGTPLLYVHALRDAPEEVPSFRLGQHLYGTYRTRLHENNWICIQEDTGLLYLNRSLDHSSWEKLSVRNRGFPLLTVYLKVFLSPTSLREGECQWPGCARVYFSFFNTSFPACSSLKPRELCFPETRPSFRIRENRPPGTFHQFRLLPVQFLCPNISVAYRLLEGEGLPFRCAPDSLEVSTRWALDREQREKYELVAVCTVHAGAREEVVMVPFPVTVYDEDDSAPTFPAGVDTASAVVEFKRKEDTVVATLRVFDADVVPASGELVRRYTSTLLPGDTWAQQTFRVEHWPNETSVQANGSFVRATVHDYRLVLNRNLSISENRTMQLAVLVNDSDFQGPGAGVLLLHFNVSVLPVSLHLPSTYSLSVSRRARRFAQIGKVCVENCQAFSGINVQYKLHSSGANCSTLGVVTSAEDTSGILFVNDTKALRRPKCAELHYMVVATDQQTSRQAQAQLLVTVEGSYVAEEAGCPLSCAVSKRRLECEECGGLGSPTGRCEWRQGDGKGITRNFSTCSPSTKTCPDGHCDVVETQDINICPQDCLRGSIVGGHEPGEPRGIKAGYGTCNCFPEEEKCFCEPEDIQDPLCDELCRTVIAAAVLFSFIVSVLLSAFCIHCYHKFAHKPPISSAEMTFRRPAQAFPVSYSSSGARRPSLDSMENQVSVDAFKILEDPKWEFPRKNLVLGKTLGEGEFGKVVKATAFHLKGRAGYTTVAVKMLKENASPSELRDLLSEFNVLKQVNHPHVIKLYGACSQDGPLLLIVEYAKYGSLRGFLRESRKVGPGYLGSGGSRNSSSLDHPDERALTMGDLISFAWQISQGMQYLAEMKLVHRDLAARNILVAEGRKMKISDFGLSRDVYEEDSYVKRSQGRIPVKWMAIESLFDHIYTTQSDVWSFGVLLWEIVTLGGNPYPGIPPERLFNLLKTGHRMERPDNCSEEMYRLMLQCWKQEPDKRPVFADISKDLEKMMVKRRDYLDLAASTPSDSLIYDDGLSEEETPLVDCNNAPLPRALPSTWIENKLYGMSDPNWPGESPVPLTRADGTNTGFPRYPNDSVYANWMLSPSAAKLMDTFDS
Protocol: as §1

SRC = target: T7, SRC (Homo sapiens, UniProt P12931); test: HTRF KinEASE-TK kinase assay; assay type: biochemical
T7 construct: purchased Life Technologies
T7 sequence (P12931 whole entry): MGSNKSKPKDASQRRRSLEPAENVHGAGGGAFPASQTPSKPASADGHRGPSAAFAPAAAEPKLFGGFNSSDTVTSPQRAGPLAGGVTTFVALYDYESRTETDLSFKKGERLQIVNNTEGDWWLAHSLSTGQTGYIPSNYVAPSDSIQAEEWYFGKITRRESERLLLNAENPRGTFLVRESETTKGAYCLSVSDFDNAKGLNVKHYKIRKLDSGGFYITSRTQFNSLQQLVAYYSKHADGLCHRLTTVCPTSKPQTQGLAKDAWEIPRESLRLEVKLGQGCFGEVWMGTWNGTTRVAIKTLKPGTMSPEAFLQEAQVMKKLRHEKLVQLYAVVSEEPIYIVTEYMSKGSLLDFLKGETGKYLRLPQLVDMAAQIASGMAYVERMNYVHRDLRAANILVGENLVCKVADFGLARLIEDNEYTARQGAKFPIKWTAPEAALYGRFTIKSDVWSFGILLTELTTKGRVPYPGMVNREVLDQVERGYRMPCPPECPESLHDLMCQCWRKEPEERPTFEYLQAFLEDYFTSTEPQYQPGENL
Protocol: as §1

TEC = target: T8, TEC (Homo sapiens, UniProt P42680); test: HTRF KinEASE-TK kinase assay; assay type: biochemical
T8 construct: purchased Life Technologies
T8 sequence (P42680 whole entry): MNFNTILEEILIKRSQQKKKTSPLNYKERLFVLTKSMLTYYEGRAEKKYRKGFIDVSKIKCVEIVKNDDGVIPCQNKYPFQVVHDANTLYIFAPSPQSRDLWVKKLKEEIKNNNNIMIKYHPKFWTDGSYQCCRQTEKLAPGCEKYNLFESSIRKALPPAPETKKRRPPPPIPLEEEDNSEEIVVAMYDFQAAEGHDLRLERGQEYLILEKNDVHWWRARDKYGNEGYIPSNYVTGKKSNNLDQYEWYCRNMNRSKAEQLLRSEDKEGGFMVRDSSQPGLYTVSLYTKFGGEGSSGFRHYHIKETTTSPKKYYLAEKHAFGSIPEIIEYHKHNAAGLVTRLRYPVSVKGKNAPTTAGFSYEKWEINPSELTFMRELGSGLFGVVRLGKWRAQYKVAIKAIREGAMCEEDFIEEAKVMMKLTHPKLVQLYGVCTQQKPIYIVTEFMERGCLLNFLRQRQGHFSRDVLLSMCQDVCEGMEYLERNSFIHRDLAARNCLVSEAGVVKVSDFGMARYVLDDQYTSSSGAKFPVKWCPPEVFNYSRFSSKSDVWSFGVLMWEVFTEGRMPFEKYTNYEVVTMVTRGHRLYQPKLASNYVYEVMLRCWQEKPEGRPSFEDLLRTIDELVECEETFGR
Protocol: as §1

TXK = target: T9, TXK (Homo sapiens, UniProt P42681); test: HTRF KinEASE-TK kinase assay; assay type: biochemical
T9 construct: purchased Life Technologies
Protocol: as §1

[1] = test system: ERK phosphorylation in Sk-Mel-28 cells; test: cellular phospho-ERK TR-FRET assay; assay type: cell-based; conditions: Homo sapiens; B-RAF V600E mutant melanoma Sk-Mel-28 cells, 1 h treatment
Protocol: A375, Sk-Mel-28, HT29, Colo205, A431, and HCC827 cell lines were purchased from American Type Culture Collection. All the cell lines used in the cellular assays were cultured in the designated medium supplemented with 10% fetal bovine serum (FBS, Thermo Scientific), 100 units/mL penicillin (Gibco), 0.1 mg/mL streptomycin (Gibco) and in a humidified 37° C. environment with 5% CO2. Cell lines were reinstated from frozen stocks laid down within three passages from the original cells purchased and passaged no more than 30 times.
Cellular phospho-ERK and phospho-EGFR were measured using a TR-FRET-based method. Cells were seeded at 3×10^4 per well of a 96-well plate and left to attach for 16 hours. Growth medium was then replaced with 100 μL of medium containing no serum. Cells were then treated with a 10-point titration of compound. After 1 h of compound treatment, 50 μL of lysis buffer (Cisbio) were added to each well. Plates were then incubated at room temperature with shaking for 30 min. A total of 16 μL of cell lysate from each well of a 96-well plate was transferred to a 384-well small volume white plate. Lysate from each well was incubated with 2 μL of Eu3+- or Tb3+-cryptate (donor) labeled anti-ERK or anti-EGFR antibody (Cisbio) and 2 μL of D2 (acceptor) labeled anti-phospho-ERK or anti-phospho-EGFR antibody (Cisbio) for 2 h at room temperature. FRET signals were measured using a PHERAstar FS reader (BMG Labtech). IC50 values for ERK or EGFR phosphorylation was determined using GraphPad Prism software.

[2] = nonclinical toxicity and safety pharmacology program
Protocol: A comprehensive nonclinical toxicity study program, including 28-day GLP studies in rats and dogs and several investigational studies, was conducted for the evaluation of the preclinical safety of Compound 1 Sesqui-Maleate (Crystalline Form A*). These studies took account the available regulatory guidance for preclinical development of anticancer drugs.

CYP2C8 = CYP2C8 (Homo sapiens, UniProt P10632); test: CYP inhibition; assay type: in vitro ADME

O=C1CCc2c(Oc3ccc4c(c3)[C@@H]3[C@H](O4)[C@H]3c3nc4ccc(C(F)(F)F)cc4[nH]3)ccnc2N1 [5-(((1R,1aS,6bR)-1-(6-(trifluoromethyl)-1H-benzo[d]imidazol-2-yl)-1a,6b-dihydro-1H-cyclopropa[b]benzofuran-5-yl)oxy)-3,4-dihydro-1,8-naphthyridin-2(1H)-one sesqui-maleate salt]
enzyme inhibition (BTK): no inhibition | IC50 (BTK; ATP at KM): > 10000 nM | enzyme inhibition (EPHA2): potently inhibits | IC50 (EPHA2; ATP at KM): 61 nM | enzyme inhibition (FLT3): potently inhibits | IC50 (FLT3; ATP at KM): 25 nM | enzyme inhibition (ITK): no inhibition | IC50 (ITK; ATP at KM): > 10000 nM | enzyme inhibition (PDGFR-beta): potently inhibits | IC50 (PDGFR-beta; ATP at KM): 17 nM | enzyme inhibition (RET): potently inhibits | IC50 (RET; ATP at KM): 18 nM | enzyme inhibition (SRC): weak inhibition | IC50 (SRC; ATP at KM): 917 nM | enzyme inhibition (TEC): no inhibition | IC50 (TEC; ATP at KM): > 10000 nM | enzyme inhibition (TXK): weak inhibition | IC50 (TXK; ATP at KM): 4800 nM | IC50 [1]: 77 nM | teratogenic, mutagenic and reproductive toxicity ([2]; additional toxicity testing): no teratogenic, mutagenic and reproductive toxicity | toxicology and safety pharmacology profile ([2]; incl. 28-day GLP studies in rats and dogs): favorable toxicology and safety pharmacology profile | effect on autonomic nervous system activity or the central nervous system ([2]; safety pharmacological test): no effect | effect on respiration, blood pressure and circulatory function ([2]; safety pharmacological test): no effect | IC50 (CYP2C8): 1030 nM
